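48-hour exposure; five concentrations; linearly interpolated endpoints. GI50 is the concentration that inhibits growth by half.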 Calls of active or inactive are those of the source. No stated cut-off is given here; in the data, active = GI50 up to about 1.1 µM and inactive = higher.
Experiments:
Experiment in all cases: inhibition of tumour cell growth, NCI panel, 48 h
HL-60 = system: HL-60
OVCAR-3 = system: OVCAR-3
ACHN = system: ACHN
NCI-H522 = system: NCI-H522
SF-539 = system: SF-539
DU-145 = system: DU-145
Malme-3M = system: Malme-3M
HT-29 = system: HT-29
BT-549 = system: BT-549
UO-31 = system: UO-31
UACC-62 = system: UACC-62
NCI-H460 = system: NCI-H460
PC-3 = system: PC-3
786-0 = system: 786-0
MOLT-4 = system: MOLT-4
HCT-116 = system: HCT-116
KM12 = system: KM12
RXF 393 = system: RXF 393
LOX IMVI = system: LOX IMVI
MCF7 = system: MCF7
UACC-257 = system: UACC-257
SN12C = system: SN12C
Hs-578T = system: Hs-578T
K562 = system: K562
SF-268 = system: SF-268
SR = system: SR
CAKI-1 = system: CAKI-1
IGROV-1 = system: IGROV-1
SNB-75 = system: SNB-75
MDA-MB-231 = system: MDA-MB-231
SNB-19 = system: SNB-19
OVCAR-8 = system: OVCAR-8
HCC 2998 = system: HCC 2998
HOP-62 = system: HOP-62
MDA-N = system: MDA-N
TK-10 = system: TK-10
HCT-15 = system: HCT-15
A549 = system: A549
SF-295 = system: SF-295
RPMI-8226 = system: RPMI-8226
A498 = system: A498
U-251 = system: U-251
T47D = system: T47D
NCI-H226 = system: NCI-H226
SW-620 = system: SW-620
SK-MEL-28 = system: SK-MEL-28
EKVX = system: EKVX
SK-MEL-2 = system: SK-MEL-2
CCRF-CEM = system: CCRF-CEM
SK-MEL-5 = system: SK-MEL-5
NCI-H23 = system: NCI-H23
MDA-MB-435 = system: MDA-MB-435
OVCAR-5 = system: OVCAR-5
SK-OV-3 = system: SK-OV-3
COLO 205 = system: COLO 205
NCI/ADR-RES = system: NCI/ADR-RES
HOP-92 = system: HOP-92
OVCAR-4 = system: OVCAR-4
M14 = system: M14

Measured: GI50

Cc1ccc(C(=O)O)c(/C=C2\Cc3cc(C)cc(C)c3C2=O)c1
inactive: HL-60 38.6 µM | OVCAR-3 36 µM | ACHN 74 µM | NCI-H522 > 100 µM | SF-539 75.9 µM | DU-145 > 100 µM | Malme-3M 96.4 µM | HT-29 > 100 µM | BT-549 > 100 µM | UO-31 92.3 µM | UACC-62 76 µM | NCI-H460 49.2 µM | PC-3 48.6 µM | 786-0 > 100 µM | MOLT-4 53.2 µM | HCT-116 53.7 µM | KM12 65.2 µM | RXF 393 67.3 µM | LOX IMVI 72.3 µM | MCF7 69.3 µM | UACC-257 90.6 µM | SN12C 49.4 µM | Hs-578T 93.8 µM | K562 52.4 µM | SF-268 > 100 µM | SR 46 µM | CAKI-1 > 100 µM | IGROV-1 > 100 µM | SNB-75 63.5 µM | MDA-MB-231 41.3 µM | SNB-19 > 100 µM | OVCAR-8 82.2 µM | HCC 2998 70.1 µM | HOP-62 > 100 µM | MDA-N 56.5 µM | TK-10 > 100 µM | A549 78.2 µM | SF-295 > 100 µM | RPMI-8226 73.6 µM | A498 81.1 µM | U-251 78.5 µM | T47D 46.6 µM | NCI-H226 40.5 µM | SW-620 > 100 µM | SK-MEL-28 > 100 µM | EKVX 66.7 µM | SK-MEL-2 > 100 µM | CCRF-CEM 35.7 µM | SK-MEL-5 35.7 µM
53.1 µM: HCT-15

O=c1cc(-c2ccccc2)oc2ccc(Oc3nnnn3-c3ccccc3)cc12
> 100 µM: HCT-15
inactive: NCI-H23 > 62.7 µM | HL-60 > 100 µM | MDA-MB-435 11.9 µM | OVCAR-3 > 100 µM | ACHN > 64.4 µM | OVCAR-5 > 100 µM | NCI-H522 70.5 µM | SF-539 27.7 µM | DU-145 > 100 µM | Malme-3M > 100 µM | HT-29 > 100 µM | BT-549 15.3 µM | UO-31 > 100 µM | UACC-62 > 48.2 µM | NCI-H460 > 100 µM | PC-3 > 100 µM | 786-0 25.9 µM | MOLT-4 > 100 µM | SK-OV-3 > 65.3 µM | HCT-116 > 81.1 µM | KM12 > 100 µM | RXF 393 > 51.5 µM | LOX IMVI > 42.7 µM | COLO 205 > 87.3 µM | NCI/ADR-RES 78.2 µM | MCF7 > 45.9 µM | UACC-257 > 100 µM | SN12C > 42.3 µM | Hs-578T 28.3 µM | K562 3.58 µM | SF-268 11.8 µM | SR > 33.1 µM | CAKI-1 > 50.1 µM | HOP-92 20.1 µM | IGROV-1 > 75.5 µM | SNB-75 47.3 µM | SNB-19 33.2 µM | OVCAR-4 > 28.2 µM | OVCAR-8 42 µM | HCC 2998 > 100 µM | HOP-62 29.4 µM | MDA-N 5.15 µM | TK-10 > 100 µM | M14 > 100 µM | A549 > 90.8 µM | SF-295 29.2 µM | RPMI-8226 > 100 µM | A498 90.2 µM | U-251 35 µM | T47D 12.1 µM | NCI-H226 25 µM | SW-620 > 100 µM | SK-MEL-28 > 55.8 µM | EKVX 12.1 µM | SK-MEL-2 39.2 µM | CCRF-CEM > 100 µM | SK-MEL-5 > 100 µM

Cc1cc2c(c(S(=O)(=O)c3ccc(Cl)cc3[N+](=O)[O-])c1)NCCC2
inactive: NCI-H23 45 µM | HL-60 > 10 µM | MDA-MB-435 42.9 µM | OVCAR-3 > 100 µM | ACHN 18.3 µM | OVCAR-5 > 100 µM | NCI-H522 18.2 µM | SF-539 > 100 µM | DU-145 94.4 µM | Malme-3M > 100 µM | HT-29 66.1 µM | BT-549 > 100 µM | UO-31 > 100 µM | UACC-62 8.11 µM | NCI-H460 74.1 µM | PC-3 9.64 µM | 786-0 > 100 µM | SK-OV-3 > 100 µM | KM12 35.1 µM | RXF 393 > 100 µM | LOX IMVI 5.57 µM | COLO 205 > 100 µM | NCI/ADR-RES 37.6 µM | MCF7 59.6 µM | SN12C > 100 µM | Hs-578T > 100 µM | SF-268 99.3 µM | SR 12.2 µM | IGROV-1 > 100 µM | SNB-75 > 100 µM | MDA-MB-231 > 100 µM | SNB-19 > 100 µM | OVCAR-4 15.3 µM | OVCAR-8 > 100 µM | HCC 2998 > 100 µM | HOP-62 50.9 µM | TK-10 > 100 µM | M14 41.9 µM | A549 38.5 µM | SF-295 53.2 µM | RPMI-8226 58.5 µM | A498 > 100 µM | U-251 > 100 µM | T47D 1.84 µM | NCI-H226 > 100 µM | SW-620 > 100 µM | SK-MEL-28 > 100 µM | EKVX > 100 µM | SK-MEL-2 > 100 µM | SK-MEL-5 25.9 µM
70.8 µM: HCT-15
